# According to a melting point compilation (Tetko et al.):
row,Structure (SMILES),melting point
1,O=[N+]([O-])c1ccc(S(=O)(=O)N2CCCC2)cc1,151 to 153 °C
2,C[Si](C)(Cl)C(Cl)Cl,-48 °C
3,Cn1nc2ccccc2c1C=O,75 to 77 °C
4,O=C(CBr)c1ccco1,34 °C
5,Cc1nccnc1O,153 °C
6,Cc1ccccc1C1Cc2ccccc2C(O)O1 (centres undefined),100 to 109 °C
7,CS(=O)(=O)c1noc(-c2cccs2)c1C#N,167 to 168 °C
8,Nc1c(Br)cc(C(F)(F)F)cc1[N+](=O)[O-],71 °C
9,CCCC[N+](=O)[O-],-81.3 °C
10,N#CC(C#N)=Cc1ccco1,70 to 74 °C
11,COc1ccc(N(C)C(=S)Cl)cc1,70 to 72 °C
12,C=C(C)CCCCCCCCCCCCCCCC,14 °C
13,COC1=C(C(C)(C)C(C)C)C(=O)C(=O)c2ccccc21,93.3 to 93.6 °C
14,CC12CCC(C(=O)/C(=N\O)C1=O)C2(C)C (centres undefined),109 °C
15,Clc1cc2oc3ccc(Cl)c(Cl)c3c2cc1Cl,210 °C
16,Cc1ccc2ncccc2c1[N+](=O)[O-],118 to 120 °C

row,Structure (SMILES),melting point
1,COc1ccc(CCNCC(O)COc2cccc(C)c2)cc1OC (centres undefined),138 °C
2,Cc1ccc(C)n1-c1cc([N+](=O)[O-])ccc1F,56 to 58 °C
3,O=C(Nc1nnc(-c2ccc(Cl)cc2)o1)c1cccc(C(F)(F)F)c1,215 to 217 °C
4,C[Si](C)(C)O[Si](C)(C)O[Si](C)(C)O[Si](C)(C)O[Si](C)(C)O[Si](C)(C)O[Si](C)(C)C,-78 °C
5,N#C/C(=N\Nc1cccc([N+](=O)[O-])c1)c1nc2ccccc2[nH]1,306 to 308 °C
6,ON=C(C1CC1)C1CC1,76.5 °C
7,CN1CCC(=O)NC1=O,171 °C
8,O=C=Nc1ccc(Cl)cc1Cl,59 to 60 °C
9,CC1=NN(c2ccccc2)C(=O)/C1=N\Nc1cccc(C(F)(F)F)c1,171 °C
10,CC(CN(C)C)CN1c2ccccc2CCc2ccccc21 (centres undefined),45 °C
11,COc1cc2c(cc1OC)C(c1ccc(O)cc1)N(C(C)=O)CC2 (centres undefined),145 to 147 °C
12,COc1ccc(-n2c(SC)nc3ccccc3c2=O)cc1,154 to 156 °C
13,CC(O)c1c(F)c(F)c(F)c(F)c1F (centres undefined),34 to 37 °C
14,Cc1cc2c(o1)-c1c(oc3ccc(Cl)cc13)CCC2C (centres undefined),93 °C
15,CCCCC(c1ccccc1)c1ccccc1,-12 °C

# The next lines start with the values.
row,melting point,Structure (SMILES)
1,190 to 193 °C,CCOC(=O)c1sc(SC)c2c1-c1ccccc1N(C)S2(=O)=O
2,133 °C,O=C(O)CC(=O)CC(=O)O
3,100 °C,CCC(C(=O)NC(=O)NC(C)=O)c1ccccc1 (centres undefined)
4,151 to 153 °C,CCOC(=O)c1c(SC)nn(S(=O)(=O)c2ccc(C)cc2)c1N
5,150 to 153 °C,Cc1nc(C2CCN(C(=O)OC(C)(C)C)CC2)sc1CO
6,184 to 185 °C,O=C(O)c1ccc(CN2CCCC2)cc1
7,280 °C,C=C1C(=O)C23C(OC(C)=O)CC4C(C)(C)CCC(OC(C)=O)C4(C)C2C(OC(C)=O)CC1(OC(C)=O)C3OC(C)=O (centres undefined)
8,264 to 267 °C,CCCc1c(O)ccc2c(=O)cc(C(=O)O)oc12
9,140 °C,CC(=O)/C(=N\Nc1ccc([N+](=O)[O-])cc1)C(=O)C(F)(F)F
10,105 °C,CC(=O)CC(=O)Nc1ccccc1C
11,89 to 90 °C,O=C(CBr)c1cc2ccccc2o1
12,185 to 186 °C,O=C(CCl)Nc1ccc([N+](=O)[O-])cc1
13,199 °C,COC(=O)CC(CC(=O)OC)(c1cc(C)c(O)c(C)c1)c1cc(C)c(O)c(C)c1
14,193 to 196 °C,COc1ccc(C(=O)O)c(Cl)c1OC
15,143 to 147 °C,O=C(O)c1cc(F)c(F)c(O)c1F
16,49 to 51 °C,COc1ccc(OC)c(C(C)=O)c1O
17,146 °C,COc1ccc(C(=O)c2ccccc2C(=O)O)cc1
18,210 °C,NC(=O)C(=O)O
